The assay can be described thus: Inhibition of human neutrophil elastase activity assessed as reduction in […].

Here are results for one compound from BindingDB's records for PubMed 32698113 (Sichuan University, 2020).

Each structure is given as a SMILES string.

Take `COc1cc2c(c3c1CCC(c1ccccc1)O3)C1C3C(c4ccc(O)c(C)c4OC)C(C(O)(OC)c4ccccc4)C14C(C=CC(=O)C4OC)OC3(c1ccccc1)O2` (stereo unspecified): the IC50 is greater than 10 µM.
